Consider two molecules from patent publication US11414454B2, “Compositions, methods, and systems for affinity-based protein identification and purification” (Auctus Biologies, Inc., priority 2017, dated 2022).

One may read the Kd as the free concentration of one partner at which half of the binding sites on the other are occupied at equilibrium, for simple one-to-one binding. As usually defined, the koff is the rate constant with which the complex falls apart. Higher therefore signals a short-lived complex.

“And” between values parts separate entries of the source, which are not always exact repeats. Equal values may be shown once. Read-outs that look alike come from different tables or passages of the source.

Series [1] deals with Bovine Serum Albumin (BSA). It is filed as binding. The procedure: (§1) 50 nM of RP-Tag Small (see Sequence 3, below) with an N-terminal Rhodamine B label was incubated with increasing concentrations of either RP-Tag Large (see Sequence 2) or Bovine Serum Albumin (BSA) in 50 mM Tris pH 8.0, 150 mM NaCl, 10 mM 2-mercaptoethanol, and 0.005% Tween 20 for 5 min in black 96-well plates at room temperature.
(§2) Anisotropy was then measured, and a Kd calculated by fitting the data to the equation f=y0+(ymax−y0)*(Ptot+x+Kd−sqrt((Ptot+x+Kd)^2−4*Ptot*x))/(2*Ptot), where y0 is the baseline anisotropy, ymax is the maximum anisotropy, Ptot is the fixed concentration of labeled peptide used, x is the variable concentration of protein used, and Kd is the measured Kd.
(§3) The indicated concentrations of RPtag (large) and an anti-His tag antibody (4E3D10H2/E3 purchased from ThermoFisher Scientific) were incubated with 1 nM rhodamine labeled native RPtag (small) peptide and 6×His peptide (Rhodamine-GHHHHHH), respectively, and fluorescence anisotropy measured. BSA incubated with native rhodamine labeled RPtag(small) is included as a control for non-specific binding. Kd's were calculated according to the equation f=y0+(ymax−y0)*(Ptot+x+Kd−sqrt((Ptot+x+Kd)^2−4*Ptot*x))/(2*Ptot), where y0 is the baseline anisotropy, ymax is the maximum anisotropy, Ptot is the fixed concentration of labeled peptide used, x is the variable concentration of protein used, and Kd is the measured Kd. We measured a Kd of 0.2±0.1 nM for RPtag(large) binding RPtag(small), and a Kd of 6±1 nM for the antibody/6×His tag pair.

For series [2], the target named is Bovine Serum Albumin (BSA) (Bos taurus, UniProt P02769). It is filed as binding. To be noted: fluorescence anisotropy, rhodamine labeled peptide, up to 10 μM BSA. The procedure:
as §1, §2, §3
On the technique in general: Fluorescence polarisation rises when a labelled molecule tumbles more slowly, as on binding a larger partner.

In a further series the test system is RPtag(large). As to the kind of experiment: pH profile of Kd by fluorescence anisotropy. It is filed as binding, Thermoanaerobacter tengcongensis. The conditions noted are these: buffers pH 1.5 to 13. The procedure:
The Kds of Nd8,Cd4 for RPtag(large) was measured in the presence of buffers of different pHs ranging from 1.5 to 13.
For these experiments, Kds were measured by fluorescence anisotropy as described above in the following buffers, all at 100 mM with 0.005% Tween 20: glycine pH 1.5, glycine pH 2.0, glycine pH 3.0, acetate pH 4.5, 2-(N-morpholino)ethanesulfonic acid pH 6.0, tris pH 7.0, tris pH 7.5, tris pH 8.0, tris pH 8.5, borate pH 10.0, phosphate pH 11.5, phosphate pH 13.0.

Series [3] deals with RPtag (large). In words: Fluorescence anisotropy Kd of rhodamine labeled RPtag (small) peptides for RPtag (large). It is filed as binding, Thermoanaerobacter tengcongensis. The conditions noted are these: Example 6, 1 nM rhodamine labeled native RPtag (small). How it is done:
as §1, §2, §3
Regarding the studies shown in FIG. 14, increasing concentrations of unlabeled RPtag large with the indicated mutations (native, f137d, and f137e) were incubated for 1 h with 1 nM rhodamine labeled RPtag small peptide and the fluorescence anisotropy was measured. Resultant curves were fit with the equation f=y0+(ymax−y0)*(Ptot+x+Kd−sqrt((Ptot+x+Kd)^2−4*Ptot*x))/(2*Ptot), where y0 is the baseline anisotropy, ymax is the maximum anisotropy, Ptot is the fixed concentration of labeled peptide used, x is the variable concentration of protein used, and Kd is the measured Kd. Data are presented here as Ka=1/Kd. Log transformed Ka's were then compared by one-way ANOVA with Holm-Sidak post hoc correction. ***p<0.001, **p<0.01, *p<0.05. data are mean±SEM (n=3-4). Buffer was 50 mM Tris pH 8.0, 0.005% tween20. Proteins were expressed and purified by single step NiNTA chromatography as before. Peptides were synthesized solid-state and handled as previous.

Series [4] has as its system RPtag (large). In words: Association/dissociation kinetics of RPtag (small) peptides with RPtag (large) by fluorescence anisotropy. It is filed as binding, Thermoanaerobacter tengcongensis. The procedure:
Panel a depicts representative association rate kinetics traces varying native RPtag small. Rhodamine labeled RPtag small at the indicated concentration was incubated with unlabeled RPtag large and the association measured by fluorescence anisotropy. L-S complex concentration was calculated by the equation (r−rmin)/(rmax−rmin)*[S] where r is the measured anisotropy, rmin is the anisotropy in the absence of any RPtag large, rmax is the anisotropy measured in the presence of at saturating RPtag large, and [S] is the total concentration of RPtag small used in the experiment. […] Dashed cyan lines are simulations of the mechanism shown in f using the rate constants detailed herein. The concentrations in the simulations were multiplied by a correction factor of 0.925, which is well within the 90% purity specification of the purchased peptide.
LS complex was performed by incubating 1000 nM RPtag large with the indicated concentrations of rhodamine labeled RPtag small. At the start of the experiment, 0.1 mM unlabeled native RPtag small was added and fluorescence anisotropy monitored. Data processing was done as in panel a, except the red fits were to the single exponential decay equation y=y0+A*exp(−b*t). As expected, the initial dissociation rates were linear with respect to the LS complex.
Fitting to a line yields a rate constant (koff)=0.0091 min^−1 (FIG. 9 panel e). In good agreement, when the kinetics are fit with a first order rate law, a rate constant of 0.012±0.002 min^−1 (n=15) was observed. […] Panel e is a graph of the initial rates of the traces represented in d. Slope of the fit line is 0.0091 min^−1. Data are mean±SE (n=3).
The library of mutant RPtag(small) peptides, described above, was next analyzed to measure off rates (koff). The on rate was also calculated from measured koff and Kd (S*-LS transition), except instead of using unlabeled native peptide as the competitor, we used unlabeled Nd2,P5A,E18A (the tightest binding RPtag(small) peptide identified). […] However, there were notable exceptions. […] This indicates, without wishing to be limited, that P5 may constrain the structure of the peptide. The increased flexibility imparted to the peptide by the P5A mutation may decrease the energy barrier required for binding/unbinding.

Series [5] addresses RPtag (large). In words: Buffer additive screen, Kd by fluorescence anisotropy. It is filed as binding, Thermoanaerobacter tengcongensis. How it is done:
To determine reagent compatibility with the disclosed system, an additive screen was performed, wherein the Kd between RPtag (large) and 3 RPtag (small) peptides—native, Nd8Cd4, and Nd2p5ae18a—were tested in the presence of several common buffer additives (Table 3).

Series [6] concerns immobilized RPtag(large) column. As to the kind of experiment: Native elution from immobilized RPtag(large) column (3 M NaCl binding, 3 M imidazole elution). More on the design: species or system Thermoanaerobacter tengcongensis. The conditions noted are these: bound in 100 mM Tris pH 8.0, 3 M NaCl, 0.005% Tween20. An excerpt:
Because of the observed stabilizing character of NaCl and destabilizing character of imidazole on Nd8Cd4 binding, these reagents, among others, were incorporated into a novel buffering system for use with the disclosed proteins, peptides, systems, and methods. In particular, the effect of this novel buffer on binding of RPtag (small) Nd8Cd4 to an immobilized RPtag(large) column was studied. These experiments included eluting both (1) rhodamine labeled peptide and (2) N-terminally RPtag(small) Nd8Cd4 tagged with tagRFP from a column under native conditions. Generally, native conditions is taken to mean at or near biological conditions under which many proteins are folded, e.g. pH 4-9 at moderate temperature (4° C.-30° C.) in the absence of denaturants (e.g. guanidine hydrochloride, urea, SDS). This is in contrast to denaturing conditions, which generally rely on extreme pH (e.g. ≤2) denaturants, or high temperature to unfold proteins.
Briefly, columns, as described above, were first equilibrated with 10 mL 100 mM Tris pH 8.0, 3 M NaCl, 0.005% Tween20. Next, 1 mL of 10 uM rhodamine-tagged Nd8Cd4 or tagRFP containing an N-terminal RPtag (small) Nd8Cd4 tag was applied in the same buffer. The column was then washed with 10 mL of the same buffer. Finally, bound target molecules were eluted with 10 mL of 100 mM Tris pH 8.0, 3 M imidazole, 0.005% Tween20.

The target of another series is RPtag(small) (Nd2Cd4). In words: Fluorescence anisotropy Kd of RPtag(large) variants for control RPtag(small) peptide Nd2Cd4. It is filed as binding, Thermoanaerobacter tengcongensis. To be noted: 2 nM rhodamine labeled Nd2Cd4. How it is done: An initial Kd was measured between RPtag(large) and the PDGF-β N-terminal peptide (FIG. 16). […] Next, competition experiments were performed using the mutant RPtag(small) peptide Nd2,P5A,E18A.
Kds were measured by incubating increasing concentrations of unlabeled RPtag large mutant with either 20 nM rhodamine labeled PDGF-β n-terminal peptide or 2 nM rhodamine labeled Nd2Cd4 variant of RPtag small, as it has the same number of amino acids as the PDGF-β peptide but contains the native binding sequence. After the incubation, fluorescence anisotropy was measured, and the resultant curves were fit with the equation f=y0+(ymax−y0)*(Ptot+x+Kd−sqrt((Ptot+x+Kd)^2−4*Ptot*x))/(2*Ptot), where y0 is the baseline anisotropy, ymax is the maximum anisotropy, Ptot is the fixed concentration of labeled peptide used, x is the variable concentration of protein used, and Kd is the measured Kd. Data are presented here as Ka=1/Kd. Log transformed Ka's were then compared by one-way ANOVA relative to wt control with Holm-Sidak post hoc correction. ***p<0.001, **p<0.01, *p<0.05. data are mean±SEM (n=3-4). Buffer was 50 mM Tris pH 8.0, 0.005% Tween20. For the sake of comparison, the double mutant h122l,a253a is shown on the same axes, but was not included in the statistical analysis as the experiment was done after the initial results identified the two single mutants.

The test system of series [7] is rhodamine labeled RPtag (small). In words: Sequential boiling/recovery trials, fraction binding of RPtag (large). More on the design: species or system Thermoanaerobacter tengcongensis. The procedure: The ability of the disclosed proteins and peptides to function after being subjected to thermal stress was also tested. Here again the RPtag (large) and anti-6×His antibody were selected for analysis. Briefly, the RPtag(large) or the anti-6×His antibody was subjected to sequential rounds of boiling and recovery. Specifically, the proteins were subjected to sequential rounds of: 5 min boiling in buffer, followed by recovery for 1 min on ice. After each round of boiling/recovery, the proteins were assayed for binding to their corresponding epitopes and the results plotted.
RPtag (large) and an the anti-His tag antibody (4E3D10H2/E3 purchased from ThermoFisher Scientific) were placed in a solution at about 0.1-1 μM [final] in a buffer of 50 mM Tris pH 8.0, 0.005% Tween20. The protein solutions were repeatedly heated for 5 min at 95° C. and then recovered on ice for 1 min. After each round of heating/cooling, an aliquot was taken and diluted to 100 nM, and incubated with 100 nM either rhodamine labeled RPtag (small) or rhodamine labeled 6x-His peptide (sequence: Rhodamine-GHHHHHH), and the fluorescence anisotropy measured. Fraction binding was calculated via the equation F=(r−rmin)/(r0−rmin) where F is the fraction binding, r is the measured anisotropy, rmin is the anisotropy in the absence of binding protein, and r0 is the anisotropy before any boiling trials.

Chain of Bovine Serum Albumin (BSA) (Bos taurus, UniProt P02769) (P02769 25-607): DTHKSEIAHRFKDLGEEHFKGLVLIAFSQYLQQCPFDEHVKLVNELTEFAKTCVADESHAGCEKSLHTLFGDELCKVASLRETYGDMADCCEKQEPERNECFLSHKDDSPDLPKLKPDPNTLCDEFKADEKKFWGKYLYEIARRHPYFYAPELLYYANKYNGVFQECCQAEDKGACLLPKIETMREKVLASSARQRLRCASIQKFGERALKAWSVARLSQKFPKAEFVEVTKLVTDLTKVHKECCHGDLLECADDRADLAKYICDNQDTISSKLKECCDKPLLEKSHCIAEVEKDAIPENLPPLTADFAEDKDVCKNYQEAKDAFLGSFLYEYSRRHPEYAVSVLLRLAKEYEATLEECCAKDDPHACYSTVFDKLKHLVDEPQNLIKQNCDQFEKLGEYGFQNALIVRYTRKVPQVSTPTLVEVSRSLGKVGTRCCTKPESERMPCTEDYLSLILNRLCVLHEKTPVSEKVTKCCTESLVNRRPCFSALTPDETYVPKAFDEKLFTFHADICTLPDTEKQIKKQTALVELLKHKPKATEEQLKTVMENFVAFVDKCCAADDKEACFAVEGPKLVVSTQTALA

As to GEKIPNFIPAELKLITKENVQ [native], the “selectivity over non-specific (BSA) interaction” value in series [1] is on record as > 50,000 fold. The “binding to BSA” value in series [2] (listed as RPtag (small)) is given as “no detectable binding”; in series [2] (listed as native RPtag (small)) it was “no interaction was detected”. Further, the “pH of relative maximum affinity” value in the series with RPtag(large) was roughly 8 pH. Besides, the equilibrium dissociation constant (Kd) is 0.2 nM and ~0.2 nM on RPtag (large) [3]; greater than 10000 nM on RPtag (large) [5] (Gdn-HCl (6M)); greater than 10000 nM on RPtag (large) [5] (SDS (2%)); greater than 10000 nM at RPtag (large) [5] (imidazole (3M)); greater than 10000 nM on RPtag (large) [5] (urea (8M)). In addition, the “slope of initial velocity line using S (total)” value in the series with RPtag (large) [4] (1000 nM RPtag(large)) was determined as 0.035 min⁻¹. Besides, in the series on RPtag (large) [4] (1000 nM RPtag(large), 0.6 to 10 nM RPtag (small)), the “rate constant for conversion of S to S* from linear fit of initial rate plot, S (corrected)” value came to 0.091 min⁻¹. Moreover, the “dissociation rate constant from first order rate law fit” value in the series with RPtag (large) [4] (0.1 mM unlabeled native RPtag small competitor, n=15) stood at 0.012 ± 0.002 min⁻¹. Besides, the dissociation rate constant (koff) in the series on RPtag (large) [4] (LS dissociation, unlabeled competitor peptide, listed as native RPtag (small)) is 0.000152 s⁻¹. Moreover, the “kr” value with RPtag (large) [4] (S* to S reverse rate constant, calculated from Keq and kf, listed as native RPtag (small)) was 0.056 min⁻¹. The “kon (M^−1 min^−1 ) (×10^7)” value in the series with RPtag (large) [4] (S*-LS transition, calculated from measured koff and Kd) is listed as 4.3 ± 0.1 ×10^7 M^−1 min^−1. Moreover, in series [6], the “elution behaviour with 100 mM Tris pH 8.0, 3 M imidazole” value is recorded as “diffuse band”.

B1: RPtag (large): RB protein fragment a.a. 1-257 from Thermoanaerobacter tengcongensis; SEQ ID NO: 3 with tags and Cys (protein)
chain: MGSSCHHHHHHSQDPNSSSMKEGKTIGLVISTLNNPFFVTLKNGAEEKAKELGYKIIVEDSQNDSSKELSNVEDLIQQKVDVLLINPVDSDAVVTAIKEANSKNIPVITIDRSANGGDVVSHIASDNVKGGEMAAEFIAKALKGKGNVVELEGIPGASAARDRGKGFDEAIAKYPDIKIVAKQAADFDRSKGLSVMENILQAQPKIDAVFAQNDEMALGAIKAIEAANRQGIIVVGFDGTEDALKAIKEGKMAATIAQQPALMGSLGVEMADKYLK
modifications: tags and added Cys
In the case of B1, at RPtag(small) (Nd2Cd4), the Kd turned out to be 0.41 nM. In [7], the “stability relative to commercially available products” value is listed as “at least 10 fold”.
